Nine compounds from ChEMBL document CHEMBL1130534, “Potent antiinflammatory 3-thiazole-4(5)-acetic acids of 1,2-benzisothiazole” (1997) can be followed below.

Where “and” joins values, the source holds several entries; their conditions need not be identical. Identical values can stand only once. A value given as a limit tells only on which side of the number the result lay.

Common to all, as to format: functional
Test [1] has as its system Rattus norvegicus. The test is described as follows: Compound administered orally was tested for antiinflammatory activity in carrageenan-induced rat paw edema assay after 2 hours. The arrangement: concentration or dose not given beside the values.
Test [2] concerns Rattus norvegicus. The test is described as follows: Compound administered orally was tested for antiinflammatory activity in carrageenan-induced rat paw edema assay after 3.5 hours. Also noted: concentration or dose not given beside the values. In general terms: The carrageenan paw model is a standard test of acute inflammation.
The subject of test [3] is Rattus norvegicus. The test is described as follows: Compound administered intraperitoneally was tested for antiinflammatory activity in carrageenan-induced rat paw edema assay after 3.5 hours. Also noted: concentration or dose not given beside the values.
The test system of test [4] is Rattus norvegicus. The test is described as follows: Compound administered intraperitoneally was tested for antiinflammatory activity in carrageenan-induced rat paw edema assay after 2 hours. Also noted: concentration or dose not given beside the values.
For test [5], the system named is Rattus norvegicus. The test is described as follows: Compound (50 mg/kg) administered intraperitoneally was tested for antiinflammatory activity in carrageenan induced rat paw edema assay after 2 hours.
The test system of test [6] is Rattus norvegicus. The test is described as follows: Compound (50 mg/kg) administered intraperitoneally was tested for antiinflammatory activity in carrageenan induced rat paw edema assay after 3.5 hours.
Test [7] deals with Rattus norvegicus. The test is described as follows: Compound (50 mg/kg) administered orally was tested for antiinflammatory activity in carrageenan-induced rat paw edema assay after 2 hours.

For `CCOC(=O)Cc1csc(-c2nsc3ccccc23)n1`, the Inhibition (commonly the change of the read-out against control, counted positive when it falls) in the test on Rattus norvegicus [1] was 18%; in the test on Rattus norvegicus [2] it was 11%.

On to `CCOC(=O)Cc1sc(-c2nsc3ccccc23)nc1-c1ccc(Cl)cc1`, for which the Inhibition in the test on Rattus norvegicus [3] is listed as 13%; with Rattus norvegicus [1], 34%; in the test on Rattus norvegicus [2] it was 22%; with Rattus norvegicus [4], 24%.

For the compound `O=C(O)Cc1sc(-c2nsc3ccccc23)nc1-c1ccc(Cl)cc1`, the Inhibition with Rattus norvegicus [5] was 76%; with Rattus norvegicus [6], 64%; in the test with Rattus norvegicus [7], 69%; with Rattus norvegicus [3], 67%; in the test on Rattus norvegicus [1], 75%; in the test with Rattus norvegicus [2] it was 62% and 61%. Moreover, the Inhibition with Rattus norvegicus [4] turned out to be 78%.

Regarding `CCOC(=O)Cc1sc(-c2nsc3ccccc23)nc1-c1ccc(OC)cc1`, the Inhibition with Rattus norvegicus [3] stood at 30%; in the test on Rattus norvegicus [1], 20%; in the test with Rattus norvegicus [2] it was 29%; with Rattus norvegicus [4], 34%.

Turning to `O=C(O)Cc1sc(-c2nsc3ccccc23)nc1-c1ccccc1`, the Inhibition in the test on Rattus norvegicus [3] was found to be 7%; in the test with Rattus norvegicus [1], 15%; with Rattus norvegicus [2], 19%; with Rattus norvegicus [4], 45%.

Take `CCOC(=O)Cc1sc(-c2nsc3ccccc23)nc1-c1ccccc1`: the Inhibition in the test with Rattus norvegicus [3] was less than 10%; in the test with Rattus norvegicus [1], less than 10%; in the test with Rattus norvegicus [2], 11%; in the test on Rattus norvegicus [4], less than 10%.

`CC(C)Cc1ccc(C(C)C(=O)O)cc1` (configuration not stated) [IBUPROFEN]: the Inhibition is 74% in the test with Rattus norvegicus [3], 62% in the test on Rattus norvegicus [1], 65% with Rattus norvegicus [2] and 70% in the test on Rattus norvegicus [4].

As for `COc1ccc(-c2nc(-c3nsc4ccccc34)sc2CC(=O)O)cc1`, the Inhibition in the test with Rattus norvegicus [3] is given as 24%; with Rattus norvegicus [1], 36%; in the test with Rattus norvegicus [2], 33%; with Rattus norvegicus [4], 40%.

As for `O=C(O)Cc1csc(-c2nsc3ccccc23)n1`, the Inhibition worked out at 64% in the test on Rattus norvegicus [3], 64% in the test on Rattus norvegicus [1], 46% in the test with Rattus norvegicus [2] and 55% with Rattus norvegicus [4].
